According to patent US9029325B2, “Amylin analogues and pharmaceutical compositions thereof” (Novo Nordisk A/S, priority 2011, dated 2015):
Starred links: 1 amine or outer side, 2 acyl side, 3 side chain; linkers in the order of their positions; H or OH if unused. Positions of bridges follow the written chain, without caps; N, C: chain ends. Residues, ends and D or L forms follow the SMILES beside them. *: point of attachment. C20 diacid = O=C(O)CCCCCCCCCCCCCCCCCCC(=O)*; C18 diacid = O=C(O)CCCCCCCCCCCCCCCCC(=O)*; γGlu = O=C(O)[C@H](CCC(=O)[*:2])N[*:1]

Experiment: Assay (I) efficacy testing on appetite (food intake), ad libitum fed rat model
Format: in vivo, Sprague Dawley (SD) rats
Conditions: 3 nmol/kg
Outline: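 Ad libitum fed SD rats (200-250 g) on a reversed light cycle, housed individually, received a single 0.01-3 mg/kg dose ip, po or sc just before lights-off. Individual food intake recorded hourly for 7 h, then at 24 h and sometimes 48 h, versus vehicle; Grubbs outliers excluded.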

CC[C@H](C)[C@H](NC(=O)[C@@H]1CCCN1C(=O)CNC(=O)[C@H](Cc1ccccc1)NC(=O)[C@H](CC(N)=O)NC(=O)[C@H](CC(N)=O)NC(=O)[C@H](CO)NC(=O)[C@H](CO)NC(=O)[C@H](Cc1c[nH]cn1)NC(=O)[C@H](Cc1c[nH]cn1)NC(=O)[C@H](CC(C)C)NC(=O)[C@H](Cc1ccccc1)NC(=O)[C@H](CCC(=O)O)NC(=O)[C@H](C)NC(=O)[C@H](CC(C)C)NC(=O)[C@H](CCCNC(=N)N)NC(=O)[C@H](CCC(N)=O)NC(=O)[C@@H](NC(=O)[C@H](C)NC(=O)[C@@H]1CSSC[C@H](NC(=O)[C@H](Cc2c[nH]cn2)NC(=O)CC[C@H](NC(=O)CCCCCCCCCCCCCCCCCCC(=O)O)C(=O)O)C(=O)N[C@@H](CC(N)=O)C(=O)N[C@@H]([C@@H](C)O)C(=O)N[C@@H](C)C(=O)N[C@@H]([C@@H](C)O)C(=O)N1)[C@@H](C)O)C(=O)N[C@@H](CC(C)C)C(=O)N1CCC[C@H]1C(=O)N1CCC[C@H]1C(=O)N[C@H](C(=O)N[C@@H](CC(N)=O)C(=O)N[C@H](C(=O)NCC(=O)N[C@@H](CO)C(=O)N[C@@H](CC(N)=O)C(=O)N[C@H](C(=O)N[C@@H](Cc1ccc(O)cc1)C(N)=O)[C@@H](C)O)C(C)C)[C@@H](C)O [compound 18] ({C20 diacid-γGlu}-HCNTATCATQRLAEFLHHSSNNFGPILPPTNVGSNTY-NH2; disulfide 2-7)
Food intake reduction 0-24 h 3 nmol/kg (%): 40%
Food intake reduction 24-48 h 3 nmol/kg (%): 32%

CC[C@H](C)[C@H](NC(=O)[C@@H]1CCCN1C(=O)CNC(=O)[C@H](Cc1ccccc1)NC(=O)[C@H](CC(N)=O)NC(=O)[C@H](CC(N)=O)NC(=O)[C@H](CO)NC(=O)[C@H](CO)NC(=O)[C@H](Cc1c[nH]cn1)NC(=O)[C@H](Cc1c[nH]cn1)NC(=O)[C@H](CC(C)C)NC(=O)[C@H](Cc1ccccc1)NC(=O)[C@H](CCC(=O)O)NC(=O)[C@H](C)NC(=O)[C@H](CC(C)C)NC(=O)[C@H](CCCNC(=N)N)NC(=O)[C@H](CCC(N)=O)NC(=O)[C@@H](NC(=O)[C@H](C)NC(=O)[C@@H]1CSSC[C@H](NC(=O)[C@H](Cc2c[nH]cn2)NC(=O)[C@H](Cc2c[nH]cn2)NC(=O)[C@H](Cc2c[nH]cn2)NC(=O)CC[C@H](NC(=O)CCCCCCCCCCCCCCCCCCC(=O)O)C(=O)O)C(=O)N[C@@H](CCCNC(=N)N)C(=O)N[C@@H]([C@@H](C)O)C(=O)N[C@@H](C)C(=O)N[C@@H]([C@@H](C)O)C(=O)N1)[C@@H](C)O)C(=O)N[C@@H](CC(C)C)C(=O)N1CCC[C@H]1C(=O)N1CCC[C@H]1C(=O)N[C@H](C(=O)N[C@@H](CC(N)=O)C(=O)N[C@H](C(=O)NCC(=O)N[C@@H](CO)C(=O)N[C@@H](CC(N)=O)C(=O)N[C@H](C(=O)N[C@@H](Cc1ccc(O)cc1)C(N)=O)[C@@H](C)O)C(C)C)[C@@H](C)O [compound 22] ({C20 diacid-γGlu}-HHHCRTATCATQRLAEFLHHSSNNFGPILPPTNVGSNTY-NH2; disulfide 4-9 (inferred); C-terminus assumed)
Food intake reduction 0-24 h 3 nmol/kg (%): 26%
Food intake reduction 24-48 h 3 nmol/kg (%): 5%

CC[C@H](C)[C@H](NC(=O)[C@@H]1CCCN1C(=O)CNC(=O)[C@H](Cc1ccccc1)NC(=O)[C@H](CC(N)=O)NC(=O)[C@H](CC(N)=O)NC(=O)[C@H](CO)NC(=O)[C@H](CO)NC(=O)[C@H](Cc1c[nH]cn1)NC(=O)[C@H](Cc1c[nH]cn1)NC(=O)[C@H](CC(C)C)NC(=O)[C@H](Cc1ccccc1)NC(=O)[C@H](CCC(=O)O)NC(=O)[C@H](C)NC(=O)[C@H](CC(C)C)NC(=O)[C@H](CCCNC(=N)N)NC(=O)[C@H](CCC(N)=O)NC(=O)[C@@H](NC(=O)[C@H](C)NC(=O)[C@@H]1CSSC[C@H](NC(=O)[C@H](CCCCN)NC(=O)[C@H](CCC(=O)O)NC(=O)CC[C@H](NC(=O)CCCCCCCCCCCCCCCCCCC(=O)O)C(=O)O)C(=O)N[C@@H](CC(N)=O)C(=O)N[C@@H]([C@@H](C)O)C(=O)N[C@@H](C)C(=O)N[C@@H]([C@@H](C)O)C(=O)N1)[C@@H](C)O)C(=O)N[C@@H](CC(C)C)C(=O)N1CCC[C@H]1C(=O)N1CCC[C@H]1C(=O)N[C@H](C(=O)N[C@@H](CC(N)=O)C(=O)N[C@H](C(=O)NCC(=O)N[C@@H](CO)C(=O)N[C@@H](CC(N)=O)C(=O)N[C@H](C(=O)N[C@@H](Cc1ccc(O)cc1)C(N)=O)[C@@H](C)O)C(C)C)[C@@H](C)O [compound 26] ({C20 diacid-γGlu}-EKCNTATCATQRLAEFLHHSSNNFGPILPPTNVGSNTY-NH2; disulfide 3-8)
Food intake reduction 0-24 h 3 nmol/kg (%): 46%
Food intake reduction 24-48 h 3 nmol/kg (%): 39%

CC[C@H](C)[C@H](NC(=O)[C@@H]1CCCN1C(=O)CNC(=O)[C@H](Cc1ccccc1)NC(=O)[C@H](CC(N)=O)NC(=O)[C@H](CC(N)=O)NC(=O)[C@H](CO)NC(=O)[C@H](CO)NC(=O)[C@H](Cc1c[nH]cn1)NC(=O)[C@H](Cc1c[nH]cn1)NC(=O)[C@H](CC(C)C)NC(=O)[C@H](Cc1ccccc1)NC(=O)[C@H](CCC(=O)O)NC(=O)[C@H](C)NC(=O)[C@H](CC(C)C)NC(=O)[C@H](CCCNC(=N)N)NC(=O)[C@H](CCC(N)=O)NC(=O)[C@@H](NC(=O)[C@H](C)NC(=O)[C@@H]1CSSC[C@H](NC(=O)CC[C@H](NC(=O)CCCCCCCCCCCCCCCCCCC(=O)O)C(=O)O)C(=O)N[C@@H](CC(N)=O)C(=O)N[C@@H]([C@@H](C)O)C(=O)N[C@@H](C)C(=O)N[C@@H]([C@@H](C)O)C(=O)N1)[C@@H](C)O)C(=O)N[C@@H](CC(C)C)C(=O)N1CCC[C@H]1C(=O)N1CCC[C@H]1C(=O)N[C@H](C(=O)N[C@@H](CC(N)=O)C(=O)N[C@H](C(=O)NCC(=O)N[C@@H](CO)C(=O)N[C@@H](CC(N)=O)C(=O)N[C@H](C(=O)N[C@@H](Cc1ccc(O)cc1)C(N)=O)[C@@H](C)O)C(C)C)[C@@H](C)O [compound 28] ({C20 diacid-γGlu}-CNTATCATQRLAEFLHHSSNNFGPILPPTNVGSNTY-NH2; disulfide 1-6 (inferred); C-terminus assumed)
Food intake reduction 0-24 h 3 nmol/kg (%): 39%
Food intake reduction 24-48 h 3 nmol/kg (%): 36%

CC[C@H](C)[C@H](NC(=O)[C@@H]1CCCN1C(=O)CNC(=O)[C@H](Cc1ccccc1)NC(=O)[C@H](CC(N)=O)NC(=O)[C@H](CC(N)=O)NC(=O)[C@H](CO)NC(=O)[C@H](CO)NC(=O)[C@H](Cc1c[nH]cn1)NC(=O)[C@H](Cc1c[nH]cn1)NC(=O)[C@H](CC(C)C)NC(=O)[C@H](Cc1ccccc1)NC(=O)[C@H](CCC(=O)O)NC(=O)[C@H](C)NC(=O)[C@H](CC(C)C)NC(=O)[C@H](CCCNC(=N)N)NC(=O)[C@H](CCC(N)=O)NC(=O)[C@@H](NC(=O)[C@H](C)NC(=O)[C@@H]1CSSC[C@H](NC(=O)[C@H](CCC(=O)O)NC(=O)CC[C@H](NC(=O)CCCCCCCCCCCCCCCCCCC(=O)O)C(=O)O)C(=O)N[C@@H](CC(N)=O)C(=O)N[C@@H]([C@@H](C)O)C(=O)N[C@@H](C)C(=O)N[C@@H]([C@@H](C)O)C(=O)N1)[C@@H](C)O)C(=O)N[C@@H](CC(C)C)C(=O)N1CCC[C@H]1C(=O)N1CCC[C@H]1C(=O)N[C@H](C(=O)N[C@@H](CC(N)=O)C(=O)N[C@H](C(=O)NCC(=O)N[C@@H](CO)C(=O)N[C@@H](CC(N)=O)C(=O)N[C@H](C(=O)N[C@@H](Cc1ccc(O)cc1)C(N)=O)[C@@H](C)O)C(C)C)[C@@H](C)O [compound 29] ({C20 diacid-γGlu}-ECNTATCATQRLAEFLHHSSNNFGPILPPTNVGSNTY-NH2; disulfide 2-7)
Food intake reduction 0-24 h 3 nmol/kg (%): 15%
Food intake reduction 24-48 h 3 nmol/kg (%): 5%

CC[C@H](C)[C@H](NC(=O)[C@@H]1CCCN1C(=O)CNC(=O)[C@H](Cc1ccccc1)NC(=O)[C@H](CC(N)=O)NC(=O)[C@H](CC(N)=O)NC(=O)[C@H](CO)NC(=O)[C@H](CO)NC(=O)[C@H](Cc1c[nH]cn1)NC(=O)[C@H](Cc1c[nH]cn1)NC(=O)[C@H](CC(C)C)NC(=O)[C@H](Cc1ccccc1)NC(=O)[C@H](CCC(=O)O)NC(=O)[C@H](C)NC(=O)[C@H](CC(C)C)NC(=O)[C@H](CCCNC(=N)N)NC(=O)[C@H](CCC(N)=O)NC(=O)[C@@H](NC(=O)[C@H](C)NC(=O)[C@@H]1CSSC[C@H](NC(=O)[C@H](CCCCN)NC(=O)CC[C@H](NC(=O)CCCCCCCCCCCCCCCCC(=O)O)C(=O)O)C(=O)N[C@@H](CC(N)=O)C(=O)N[C@@H]([C@@H](C)O)C(=O)N[C@@H](C)C(=O)N[C@@H]([C@@H](C)O)C(=O)N1)[C@@H](C)O)C(=O)N[C@@H](CC(C)C)C(=O)N1CCC[C@H]1C(=O)N1CCC[C@H]1C(=O)N[C@H](C(=O)N[C@@H](CC(N)=O)C(=O)N[C@H](C(=O)NCC(=O)N[C@@H](CO)C(=O)N[C@@H](CC(N)=O)C(=O)N[C@H](C(=O)N[C@@H](Cc1ccc(O)cc1)C(N)=O)[C@@H](C)O)C(C)C)[C@@H](C)O [compound 46] ({C18 diacid-γGlu}-KCNTATCATQRLAEFLHHSSNNFGPILPPTNVGSNTY-NH2; disulfide 2-7 (inferred); C-terminus assumed)
Food intake reduction 0-24 h 3 nmol/kg (%): 54%
Food intake reduction 24-48 h 3 nmol/kg (%): 27%

CC[C@H](C)[C@H](NC(=O)[C@@H]1CCCN1C(=O)CNC(=O)[C@H](Cc1ccccc1)NC(=O)[C@H](CC(N)=O)NC(=O)[C@H](CC(N)=O)NC(=O)[C@H](CO)NC(=O)[C@H](CO)NC(=O)[C@H](Cc1c[nH]cn1)NC(=O)[C@H](CCCNC(=N)N)NC(=O)[C@H](CC(C)C)NC(=O)[C@H](Cc1ccccc1)NC(=O)[C@H](CCC(=O)O)NC(=O)[C@H](C)NC(=O)[C@H](CC(C)C)NC(=O)[C@H](CCCNC(=N)N)NC(=O)[C@H](CCC(N)=O)NC(=O)[C@@H](NC(=O)[C@H](C)NC(=O)[C@@H]1CSSC[C@H](NC(=O)[C@H](CCCCN)NC(=O)CC[C@H](NC(=O)CCCCCCCCCCCCCCCCCCC(=O)O)C(=O)O)C(=O)N[C@@H](CC(N)=O)C(=O)N[C@@H]([C@@H](C)O)C(=O)N[C@@H](C)C(=O)N[C@@H]([C@@H](C)O)C(=O)N1)[C@@H](C)O)C(=O)N[C@@H](CC(C)C)C(=O)N1CCC[C@H]1C(=O)N1CCC[C@H]1C(=O)N[C@H](C(=O)N[C@@H](CC(N)=O)C(=O)N[C@H](C(=O)NCC(=O)N[C@@H](CO)C(=O)N[C@@H](CC(N)=O)C(=O)N[C@H](C(=O)N[C@@H](Cc1ccc(O)cc1)C(N)=O)[C@@H](C)O)C(C)C)[C@@H](C)O [compound 50] ({C20 diacid-γGlu}-KCNTATCATQRLAEFLRHSSNNFGPILPPTNVGSNTY-NH2; disulfide 2-7 (inferred); C-terminus assumed)
Food intake reduction 0-24 h 3 nmol/kg (%): 30%
Food intake reduction 24-48 h 3 nmol/kg (%): 8%
